Results on 15 molecules are retold here after patent US20230416248A1, “COMPOUNDS AND USES THEREOF” (Foghorn Therapeutics Inc., priority 2020, published 2023).

Read-outs that look alike come from different tables or passages of the source.

In assay [1] the target is T1, BRG-1 (Homo sapiens, UniProt P51532).
T1 construct: made in house; host or cells: High Five insect cells
The experiment in a line: ATPase catalytic activity of BRG-1, ADP-Glo in vitro biochemical assay. To be noted: 30 nM BRG-1, 400 μM ATP, read-out: BRG1 IC50. The method in brief: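 BRG-1 ATPase activity was measured by ADP-Glo. Unconsumed ATP was depleted for 40 min at room temperature, then ADP was converted to ATP for 60 min and read as luminescence.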
(In general: ADP-Glo first removes unused ATP, then detects ADP through luciferase.)

Assay [2] addresses T2, BRM (Homo sapiens, UniProt P51531).
T2 construct: made in house; host or cells: High Five insect cells
The experiment in a line: ATPase catalytic activity of BRM, ADP-Glo in vitro biochemical assay. Particulars: for IC50: 30 nM BRM, 400 μM ATP; for Ratio* (BRG1 IC50 (μM) divided by BRM IC50 (μM)): selectivity ratio BRG1 IC50 / BRM IC50. The method in brief: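 Recombinant BRM (30 nM) hydrolysed 400 μM ATP with 20 nM salmon sperm DNA in pH 8 Tris buffer containing 20 mM MgCl2, 50 mM NaCl, 0.1% Tween-20 and 1 mM DTT, 1 h at room temperature. ADP formed was quantified by ADP-Glo luminescence.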

[3] abbreviates: ATPase catalytic activity, ADP-Glo.

T1 sequence (P51532 whole entry): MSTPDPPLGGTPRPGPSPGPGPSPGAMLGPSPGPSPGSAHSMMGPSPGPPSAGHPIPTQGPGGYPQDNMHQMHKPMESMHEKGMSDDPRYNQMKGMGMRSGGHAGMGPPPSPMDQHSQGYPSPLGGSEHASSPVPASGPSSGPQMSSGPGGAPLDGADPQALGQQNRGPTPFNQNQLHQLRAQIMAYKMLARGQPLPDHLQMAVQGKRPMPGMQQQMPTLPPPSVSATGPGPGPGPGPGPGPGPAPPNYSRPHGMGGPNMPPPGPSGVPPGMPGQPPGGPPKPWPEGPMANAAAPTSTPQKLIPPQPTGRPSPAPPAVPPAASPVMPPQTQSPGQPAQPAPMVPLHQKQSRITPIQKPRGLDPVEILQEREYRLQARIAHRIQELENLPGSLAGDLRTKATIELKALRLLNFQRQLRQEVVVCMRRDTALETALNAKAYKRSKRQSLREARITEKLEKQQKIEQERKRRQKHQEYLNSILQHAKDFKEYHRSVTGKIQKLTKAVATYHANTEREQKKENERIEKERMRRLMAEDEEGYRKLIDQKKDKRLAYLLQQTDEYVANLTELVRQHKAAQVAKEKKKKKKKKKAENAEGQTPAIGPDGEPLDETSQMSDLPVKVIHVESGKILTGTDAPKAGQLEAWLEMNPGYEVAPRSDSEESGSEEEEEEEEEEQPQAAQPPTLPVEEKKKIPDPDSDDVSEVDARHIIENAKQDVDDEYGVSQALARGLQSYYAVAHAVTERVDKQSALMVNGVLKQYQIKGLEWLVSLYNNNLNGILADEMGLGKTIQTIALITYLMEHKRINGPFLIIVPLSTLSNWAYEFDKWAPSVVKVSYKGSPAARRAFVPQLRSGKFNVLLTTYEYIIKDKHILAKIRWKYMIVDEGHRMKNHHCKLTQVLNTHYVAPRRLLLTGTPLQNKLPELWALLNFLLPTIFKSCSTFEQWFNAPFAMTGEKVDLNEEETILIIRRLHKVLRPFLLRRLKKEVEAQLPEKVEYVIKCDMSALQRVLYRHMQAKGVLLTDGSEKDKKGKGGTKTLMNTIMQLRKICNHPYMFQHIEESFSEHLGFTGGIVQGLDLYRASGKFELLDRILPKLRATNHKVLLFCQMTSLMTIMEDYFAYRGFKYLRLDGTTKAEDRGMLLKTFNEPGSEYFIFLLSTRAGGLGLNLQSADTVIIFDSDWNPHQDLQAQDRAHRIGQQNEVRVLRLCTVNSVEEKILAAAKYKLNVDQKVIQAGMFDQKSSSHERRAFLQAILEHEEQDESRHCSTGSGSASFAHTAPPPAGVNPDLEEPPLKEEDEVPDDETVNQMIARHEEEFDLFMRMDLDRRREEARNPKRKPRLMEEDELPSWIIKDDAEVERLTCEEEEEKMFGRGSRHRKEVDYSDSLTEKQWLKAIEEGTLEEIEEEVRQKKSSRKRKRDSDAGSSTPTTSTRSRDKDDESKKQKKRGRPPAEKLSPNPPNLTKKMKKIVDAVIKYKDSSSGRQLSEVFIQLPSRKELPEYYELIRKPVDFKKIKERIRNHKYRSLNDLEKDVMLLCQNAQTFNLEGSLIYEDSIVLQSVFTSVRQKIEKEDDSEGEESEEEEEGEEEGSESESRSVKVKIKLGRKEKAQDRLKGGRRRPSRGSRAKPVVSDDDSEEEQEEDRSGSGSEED
T2 sequence (P51531 whole entry): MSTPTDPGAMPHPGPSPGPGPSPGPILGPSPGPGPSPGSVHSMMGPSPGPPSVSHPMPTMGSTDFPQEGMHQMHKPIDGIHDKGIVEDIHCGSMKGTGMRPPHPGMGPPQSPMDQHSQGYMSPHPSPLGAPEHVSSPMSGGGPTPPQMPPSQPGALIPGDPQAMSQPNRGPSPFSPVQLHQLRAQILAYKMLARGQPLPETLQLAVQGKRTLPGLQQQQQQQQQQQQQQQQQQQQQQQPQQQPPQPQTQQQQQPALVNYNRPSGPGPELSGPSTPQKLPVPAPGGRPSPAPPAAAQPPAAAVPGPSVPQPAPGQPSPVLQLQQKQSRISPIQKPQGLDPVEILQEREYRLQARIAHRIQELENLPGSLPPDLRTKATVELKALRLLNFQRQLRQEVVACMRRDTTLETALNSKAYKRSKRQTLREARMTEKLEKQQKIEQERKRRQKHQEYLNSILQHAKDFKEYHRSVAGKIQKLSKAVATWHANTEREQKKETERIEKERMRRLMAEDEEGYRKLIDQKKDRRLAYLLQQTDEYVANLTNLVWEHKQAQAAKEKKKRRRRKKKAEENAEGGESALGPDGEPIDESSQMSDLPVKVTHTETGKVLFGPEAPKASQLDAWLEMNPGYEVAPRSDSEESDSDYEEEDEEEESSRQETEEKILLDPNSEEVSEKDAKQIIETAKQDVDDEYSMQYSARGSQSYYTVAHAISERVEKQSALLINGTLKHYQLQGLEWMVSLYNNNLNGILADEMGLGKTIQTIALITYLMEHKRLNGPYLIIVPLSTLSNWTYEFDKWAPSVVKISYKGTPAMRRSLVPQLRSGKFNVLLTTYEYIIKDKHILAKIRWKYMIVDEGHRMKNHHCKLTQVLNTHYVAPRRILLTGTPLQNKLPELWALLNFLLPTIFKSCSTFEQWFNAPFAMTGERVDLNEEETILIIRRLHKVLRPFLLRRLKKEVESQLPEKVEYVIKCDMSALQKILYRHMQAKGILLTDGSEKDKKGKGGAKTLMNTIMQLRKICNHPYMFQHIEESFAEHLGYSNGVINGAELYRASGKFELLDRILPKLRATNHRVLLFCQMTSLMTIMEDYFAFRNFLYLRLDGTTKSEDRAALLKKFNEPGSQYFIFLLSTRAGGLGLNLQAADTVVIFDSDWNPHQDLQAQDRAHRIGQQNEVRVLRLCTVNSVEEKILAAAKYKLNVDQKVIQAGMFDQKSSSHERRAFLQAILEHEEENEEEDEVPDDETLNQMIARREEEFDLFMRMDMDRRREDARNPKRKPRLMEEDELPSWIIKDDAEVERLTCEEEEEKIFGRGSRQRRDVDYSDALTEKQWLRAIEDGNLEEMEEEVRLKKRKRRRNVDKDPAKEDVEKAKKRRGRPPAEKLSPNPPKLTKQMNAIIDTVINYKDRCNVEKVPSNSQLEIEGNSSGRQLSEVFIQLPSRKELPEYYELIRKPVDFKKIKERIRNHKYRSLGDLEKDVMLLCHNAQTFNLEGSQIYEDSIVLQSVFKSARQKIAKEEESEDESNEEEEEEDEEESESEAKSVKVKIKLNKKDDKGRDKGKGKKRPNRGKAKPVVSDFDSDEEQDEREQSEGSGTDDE

A word on the IC50: it is the concentration that gives 50% inhibition. As for `COc1nn([C@H]2C[C@H](F)C2)cc1-c1ccc2cnc(CNC(=O)c3ccc4c(c3)S(=O)(=O)CCOC4)cc2n1` [Compound 152], the IC50 was 2140 nM in assay [1] (ADP-Glo ATPase assay) and 136 nM in assay [2] (ADP-Glo ATPase assay). Also, the “Ratio* (BRG1 IC50 (μM) divided by BRM IC50 (μM))” value in assay [2] came to 15.77.

Turning to `CN(C)S(=O)(=O)c1cccc(C(=O)NCc2cc3nc(-c4cncc(C5CC5)n4)ccc3cn2)c1` [Compound 301], the IC50 in assay [1] (ADP-Glo ATPase assay) was found to be 8880 nM; in assay [2] (ADP-Glo ATPase assay), 858 nM. In assay [2], the “Ratio* (BRG1 IC50 (μM) divided by BRM IC50 (μM))” value is recorded as 10.34.

As for `O=C(NCc1cc2nc(N3CCCc4cccnc43)ccc2cn1)c1ccc2c(c1)S(=O)(=O)CCOC2` [Compound 150], the results for the IC50 in assay [1] (ADP-Glo ATPase assay) and in assay [2] (ADP-Glo ATPase assay) were 396 nM and 33.8 nM, respectively. For the same molecule, the “Ratio* (BRG1 IC50 (μM) divided by BRM IC50 (μM))” value in assay [2] is 11.71.

Regarding `COCc1ccc2c(n1)N(c1ccc3cnc(CNC(=O)c4ccc5c(c4)S(=O)(=O)CCOC5)cc3n1)CCC2` [Compound 445], the IC50 in assay [1] (setting [3]) came to 658 nM; in assay [2] (setting [3]) it was 20.4 nM. Besides, the “Ratio*” value in assay [2] (ratio of BRG1 IC50 to BRM IC50) came to 32.29.

With `Cc1cnc2c(c1)OCCN2c1ccc2cnc(CNC(=O)c3cc(F)c4c(c3)S(=O)(=O)CCOC4)cc2n1` [Compound 550], the IC50 stood at 63.9 nM in assay [1] (setting [3]) and 5.3 nM in assay [2] (setting [3]). Besides, in assay [2] (ratio of BRG1 IC50 to BRM IC50), the “Ratio*” value was determined as 12.09.

On to `O=C(NCc1cc2nc(-c3ccc4c(n3)N(CC(F)F)CC4)ccc2cn1)c1ccc2c(c1)S(=O)(=O)CCOC2` [Compound 119], for which the IC50 in assay [1] (ADP-Glo ATPase assay) turned out to be 221 nM; in assay [2] (ADP-Glo ATPase assay) it was 40 nM. Moreover, the “Ratio* (BRG1 IC50 (μM) divided by BRM IC50 (μM))” value in assay [2] is on record as 5.53.

With `C[C@@]1(c2cccc(-c3ccc4cnc(CNC(=O)c5ccc6c(c5)S(=O)(=O)CCOC6)cc4n3)n2)CC1(F)F` [Compound 214], the IC50 in assay [1] (ADP-Glo ATPase assay) is 3310 nM; in assay [2] (ADP-Glo ATPase assay) it was 331 nM. Further, the “Ratio* (BRG1 IC50 (μM) divided by BRM IC50 (μM))” value in assay [2] is 10.01.

As to `C[C@H]1COCc2ccc(C(=O)NCc3cc4nc(N5CCCc6cc(N(C)C)cnc65)ccc4cn3)cc2S1(=O)=O` [Compound 650], the 50% inhibitory concentration (IC50) was found to be 115 nM in assay [1] (setting [3]) and 12.7 nM in assay [2] (setting [3]). In assay [2] (ratio of BRG1 IC50 to BRM IC50), the “Ratio*” value is 9.04.

For `Cc1cc(C(=O)NCc2cc3cc(-c4cccc(N5C[C@@H](C)O[C@@H](C)C5)n4)ccc3cn2)cc2c1COCCS2(=O)=O` [Compound 728], the IC50 in assay [1] (ADP-Glo ATPase assay) was 29.6 nM; in assay [2] (ADP-Glo ATPase assay), 12.3 nM. Also, the “Ratio*” value in assay [2] (ratio BRG1 IC50 / BRM IC50) turned out to be 2.42.

In the case of `O=C(NCc1cc2nc(-c3cccc(OC4CC4)n3)ccc2cn1)c1ccc2c(c1)S(=O)(=O)CCOC2` [Compound 241], the IC50 is 1070 nM in assay [1] (ADP-Glo ATPase assay) and 62.3 nM in assay [2] (ADP-Glo ATPase assay). The “Ratio* (BRG1 IC50 (μM) divided by BRM IC50 (μM))” value in assay [2] is 17.23.

Regarding `C[C@@H]1CN(c2cccc(-c3ccc4cnc(CNC(=O)c5ccc6c(c5)S(=O)(=O)CCOC6)cc4n3)c2)C[C@H](C)O1` [Compound 112], the IC50 in assay [1] (ADP-Glo ATPase assay) came out at 176 nM; in assay [2] (ADP-Glo ATPase assay), 12.9 nM. Moreover, the “Ratio* (BRG1 IC50 (μM) divided by BRM IC50 (μM))” value in assay [2] amounted to 13.71.

With `CC(C)S(=O)(=O)c1cccc(C(=O)NCc2cc3nc(-c4cncc(C5CC5)n4)ccc3cn2)c1` [Compound 296], the IC50 in assay [1] (ADP-Glo ATPase assay) was determined as 5000 nM; in assay [2] (ADP-Glo ATPase assay), 316 nM. In assay [2], the “Ratio* (BRG1 IC50 (μM) divided by BRM IC50 (μM))” value is recorded as 15.84.

As for `Cc1ccc2c(c1)CCCN2c1ccc2cnc(CNC(=O)c3ccc4c(c3)S(=O)(=O)CCOC4)cc2n1` [Compound 350], the IC50 turned out to be 105 nM in assay [1] (setting [3]) and 8.1 nM in assay [2] (setting [3]). Besides, the “Ratio*” value in assay [2] (ratio of BRG1 IC50 to BRM IC50) amounted to 12.99.

In the case of `COC[C@@H](C)Oc1ccc2c(c1)N(c1ccc3cnc(CNC(=O)c4ccc5c(c4)S(=O)(=O)CCOC5)cc3n1)CCC2` [Compound 696], the IC50 was determined as 128 nM in assay [1] (setting [3]) and 6.8 nM in assay [2] (setting [3]). Further, in assay [2] (ratio of BRG1 IC50 to BRM IC50), the “Ratio*” value is on record as 18.76.

For `Cc1cc(-c2ccc3cnc(CNC(=O)c4ccc5c(c4)S(=O)(=O)CCOC5)cc3n2)nc(N2C[C@@H](C)O[C@@H](C)C2)c1` [Compound 212], the IC50 in assay [1] (ADP-Glo ATPase assay) stood at 122 nM; in assay [2] (ADP-Glo ATPase assay), 14.3 nM. The “Ratio* (BRG1 IC50 (μM) divided by BRM IC50 (μM))” value in assay [2] amounted to 8.51.
